Measurements taken from patent publication US20220347299A1, “FLUORESCENT SYSTEMS FOR BIOLOGICAL IMAGING AND USES THEREOF” (LIGHTOX LIMITED, priority 2019, published 2022).
One block for each molecule: values may come before it.

Assays:
[1] = Photophysical comparison of para- and ortho-substituted compounds in chloroform; assay type: physicochemical; settings: for excitation by 405 nm violet excitation laser light source (absorption at this wavelength): Chloroform
Experimental: To compare the photophysical behaviour of para-substituted compounds of the invention with ortho-substituted compounds, compound 73 and reference compound 77 were synthesised in accordance with Example 1:
Solutions of compounds 73 and 77 were prepared at concentrations of 10 μM and 100 nM in chloroform. The absorption spectra of each compound (10 μM) was recorded using a CARY100 UV-Visible spectrometer, from 200-800 nm, and is shown in FIG. 3a after solvent background subtraction. […] Also shown in FIG. 3a is the approximate bandwidth of a 405 nm violet excitation laser light source that is commonplace on fluorescence microscopes used for cellular imaging studies.
To assess this effect and to compare the fluorescence emission properties of 73 and 77, solutions of both compounds in chloroform (100 nM) were excited at both 360 nm and 405 nm. At 360 nm excitation, 73 and 77 were excited with high efficiency since this wavelength is close to the absorption maxima of both compounds.
Both compounds were also excited at 405 nm to compare their respective suitabilities towards imaging using a typical fluorescence microscope.

[2] = Peak absorption and fluorescence emission wavelengths in solvents; assay type: physicochemical; settings: for λem(max)/nm: 100 nM, excitation at peak of absorption; for λabs(max)/nm: 10 μM
Experimental: Peak absorption and fluorescence emission wavelengths of compounds 6, 7, 12, 13, 14, 15, 19, 23, 27, 30 and 34 were measured in a variety of solvents, and the results are shown in Table 1. Absorption measurements were recorded at a concentration of 10 μM, and emission measurements were recorded at a concentration of 100 nM. Emission spectra were recorded with excitation at the peak of absorption (S0→S1).

- excitation by 405 nm violet excitation laser light source (absorption at this wavelength) ([1]; 10 μM): absorbed only very weakly
- fluorescence emission at 405 nm excitation ([1]; chloroform, 100 nM): only very weak fluorescence emission
Structure (SMILES): COC(=O)/C=C/c1ccc(C#Cc2ccccc2N2CCN(C)CC2)cn1 [Compound 77, methyl (2E)-3-(5-{2-[2-(4-methylpiperazin-1-yl)phenyl]ethynyl}pyridin-2-yl)prop-2-enoate, reference compound]
- absorption spectrum, ortho-position 77 relative to para-position 73 ([1]; chloroform, 10 μM, 200-800 nm): substantial hypsochromic shift and reduction in extinction coefficient

- λem(max)/nm ([2]; DCM): 524 nm
- λabs(max)/nm ([2]; DCM): 371 nm
- λem(max)/nm ([2]; Toluene): 493 nm
- λabs(max)/nm ([2]; Toluene): 380 nm
Structure (SMILES): CC(C)(C)OC(=O)/C=C/c1ccc(C#Cc2ccc(N3CCNCC3)cc2)s1 [Compound 27, tert-butyl (2E)-3-(5-{2-[4-(piperazin-1-yl)phenyl]ethynyl}thiophen-2-yl) prop-2-enoate]

- λem(max)/nm ([2]; Chloroform): 628 nm
- λabs(max)/nm ([2]; Chloroform): 432 nm
Structure (SMILES): NCCN1C(=O)/C(=C/c2ccc(C#Cc3ccc(N4CCC4)cc3)cc2)N=C1c1ccccc1 [Compound 34, (4Z)-1-(2-aminoethyl)-4-[(4-{2-[4-(azetidin-1-yl)phenyl]ethynyl}phenyl)methylidene]-2-phenyl-4,5-dihydro-1H-imidazol-5-one]

- λem(max)/nm ([2]; Chloroform): 584 nm
- λabs(max)/nm ([2]; Chloroform): 403 nm
- λabs(max)/nm ([2]; MeOH): 395 nm
- λem(max)/nm ([2]; Toluene): 515 nm
- λabs(max)/nm ([2]; Toluene): 403 nm
Structure (SMILES): COCCN1C(=O)/C(=C/c2ccc(C#Cc3ccc(N4CCNCC4)cc3)cc2)N=C1C [Compound 19, (4Z)-1-(2-methoxyethyl)-2-methyl-4-[(4-{2-[4-(piperazin-1-yl)phenyl]ethynyl}phenyl)methylidene]-4,5-dihydro-1H-imidazol-5-one]

- λem(max)/nm ([2]; Chloroform): 616 nm
- λabs(max)/nm ([2]; Chloroform): 424 nm
Structure (SMILES): O=C1/C(=C/c2ccc(C#Cc3ccc(N4CCNCC4)cc3)cc2)N=C(c2ccccc2)N1CCN1CCOCC1 [Compound 23, (4Z)-1-[2-(morpholin-4-yl)ethyl]-2-phenyl-4-[(4-{2-[4-(piperazin-1-yl)phenyl]ethynyl}phenyl)methylidene]-4,5-dihydro-1H-imidazol-5-one]

- λem(max)/nm ([2]; Chloroform): 535 nm
- λabs(max)/nm ([2]; Chloroform): 374 nm
Structure (SMILES): COC(=O)/C=C/c1ccc(C#Cc2ccc(N3CCC3)cc2)cc1 [Compound 30, methyl (2E)-3-(4-{2-[4-(azetidin-1-yl)phenyl]ethynyl}phenyl)prop-2-enoate]

- excitation by 405 nm violet excitation laser light source (absorption at this wavelength) ([1]; 10 μM): capable of efficient excitation
- shift of fluorescence emission compared to compound 77 ([1]; chloroform, 100 nM, 360 nm excitation): significant bathochromic shift
Structure (SMILES): COC(=O)/C=C/c1ccc(C#Cc2ccc(N3CCN(C)CC3)cc2)cn1 [Compound 73, methyl (2E)-3-(5-{2-[4-(4-methylpiperazin-1-yl)phenyl]ethynyl}pyridin-2-yl)prop-2-enoate]
- fluorescence emission at 360 nm excitation, compared to the other compound ([1]; chloroform, 100 nM): substantially stronger fluorescence emission
- fluorescence emission at 405 nm excitation ([1]; chloroform, 100 nM): of a similar intensity to excitation at 360 nm
